In PubChem BioAssay AID179 (DTP/NCI, 2004):
Where “and” joins values, the source holds several entries; their conditions need not be identical. Equal values may be shown once. Calls of active or inactive are those of the source.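 Rule for the calls: active = compounds giving half or more protection of infected cells from virus-caused growth loss, again on retest; inactive = the rest.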

System: CEM cells HIV-1 protection, formazan growth assay
Assay: NCI AIDS Antiviral Assay
Conditions: for IC50: measured here: growth of uninfected CEM cells
Experimental: The ability of compounds to protect human CEM cells from HIV-1 infection is measured as a screen for new compounds capable of inhibiting the HIV virus. Five concentrations of drug were tested on uninfected and infected cells and cell growth was measured using a soluble formazan assay. […] Compounds that provided at least 50% protection were retested. Compounds that provided at least 50% protection on retest were listed as moderately active. Compounds that reproducibly provided 100% protection were listed as confirmed active. […] Note that the inability to provide protection could be due to toxicity.

Row | SMILES | EC50 [µM] | IC50 | outcome
1 | C/C(=N\O)C(CN1CCCCC1)C(c1ccccc1)c1c(O)c2ccccc2oc1=O (centres undefined) | > 29.5 | > 29.5 µM | 
2 | S=CN1CCCCC1 | > 200 | > 200 µM | 
3 | C=C[C@]1(O)CCC[C@]2(C)C(=O)CCC12C (some centres undefined) |  |  | inactive
4 | C[C@@H]1C[C@H](C)S(=O)[C@H](C)S1 (some centres undefined) | > 1410 | > 1410 µM | 
5 | COc1ccc(/C=N/N2C(=O)c3c(N)c(C#N)c(-c4ccccc4)c(-c4ccccc4)c3C2=O)cc1 | > 100 | > 100 µM | 
6 | O=C(CC1(O)C(=O)Nc2c(Cl)ccc(Cl)c21)c1ccc(F)cc1 (centres undefined) | > 372 | 70.8 µM | 
7 | N#C/C(=C/NC(=S)c1ccncc1)C(N)=O | > 200 | > 200 µM | 
8 | Cc1c(O)cc2c(c1O)C(=O)CC(c1ccc(O)cc1)O2 (centres undefined) | > 200 | 93.3 µM | 
9 | COc1cc(C2c3cc4c(cc3OC(N3CCOCC3)C2C)OCO4)cc(OC)c1O (centres undefined) | > 200 | 8.51 µM | 
10 | CN(C(=O)C12C3C4C1C1C2C3C41C#N)C(C)(C)C (centres undefined) | > 41.7 | > 41.7 µM | 
11 | O=S(=O)(N/N=C/c1c(Cl)cccc1Cl)c1ccccc1 |  |  | inactive
12 | COc1ccc(-c2c(C#N)c(S)n(C3OC(CO)C(O)C(O)C3O)c(=O)c2C#N)cc1 (centres undefined) | > 200 | 195 µM and > 200 µM | 
13 | Cc1ccc(Nc2nc(NS(=O)(=O)c3cc(C)c(Cl)cc3S)n(C)n2)cc1 | > 200 | 105 µM | 
14 | N=CN=CC(=S)O[C@@H]1C(=O)N2CCC[C@@]23CCCC[C@@H]13 | > 25.1 | > 25.1 µM | 
15 | OCCCCCCOc1ccc(-c2cc(-c3ccccn3)nc(-c3ccccn3)c2)cc1 | > 12.3 | 1.91 µM | 
16 | N#CC(C#N)=Cc1ccc(F)cc1 | > 79.4 | > 79.4 µM | 
17 | CC(C)C(=O)CC(Sc1ccc(N)cc1)c1ccccc1 (centres undefined) | > 200 | 87.1 µM | 
18 | COC(=O)c1cc2c(c3c1CC(Cc1ccccc1)C3=O)CCC2 (centres undefined) | > 200 | 33.1 µM | 
19 | O=[N+]([O-])c1ccc(-c2ccc(C3=Nn4c(nnc4-c4ccc(Cl)cc4)SC3)o2)cc1 | > 1.74 | > 1.74 µM | 
20 | CCOC(=O)c1c(NC(=O)c2ccccc2)sc2c1CCCC2 | > 151 | > 151 µM | 
21 | CCOC(=O)c1cnn2c(SC)ncnc12 | > 282 | 67.6 µM | 
22 | N#CCCN(CCC#N)c1ccc(/C=C2/C=C(c3ccccc3)OC2=O)cc1 | > 14.1 | > 14.1 µM | 

Row | SMILES | EC50 [µM] | IC50 | outcome
23 | Cc1ccccc1NC(=O)C(=O)CC(=O)c1c(C)n([O-])c2ccccc2[n+]1=O | > 3.8 | > 3.8 µM | 
24 | COC1=C(C)C(=O)C(=O)c2ccccc21 |  |  | inactive
25 | CCCCCCCCCCCCCCCCOP(=O)(O)OCC(NC(C)=O)C(=O)O (centres undefined) | > 200 | 63.1 µM | 
26 | CCOC(=O)c1cc(=O)oc2c1N(C)c1ncccc1N2 | > 200 | 166 µM | 
27 | CC1CC(C)(C)N=C(C(C)CC2CCCCC2)O1 (centres undefined) | > 200 | 21.9 µM | 
28 | NCCN.NCCN.O=C([O-])[O-].O=C([O-])[O-].[Co+3] |  |  | inactive
29 | CCC/C(Cl)=N\OC(=O)Nc1ccc(OC(F)(F)F)cc1 | > 20 | 5.37 µM | 
30 | CCOC(=O)/C(=C\n1c(=S)[nH]c2ccccc21)C(=O)c1ccccc1 | > 200 | > 200 µM | 
31 | COc1ccc(C2S/C(=C\c3cc(OC)c(OC)c(OC)c3)C(=O)N2NC(=O)Cc2ccccc2)cc1 (centres undefined) | > 36.3 | > 36.3 µM | 
32 | COc1ccc2c(c1)C(c1ccc3ccccc3c1)OC2=O (centres undefined) | > 46.8 | 7.41 µM | 
33 | [NH-]C(CCC(N)=O)C(=O)O.[NH-]C(CCCCN)C(=O)O.[Zn+2] (centres undefined) | > 200 | > 200 µM | 
34 | O=C(O)c1ccccc1Sc1ccccc1[N+](=O)[O-] |  |  | inactive
35 | Nc1ccc(C(=O)N/C(=C\c2ccc3c(c2)OCO3)c2nc3ccccc3s2)cc1 |  |  | inactive
36 | O=c1[nH]c2ccc(Cl)cc2o1 | 182 | > 200 µM | 
37 | Cc1ccc(/C=C2/N=C(N/N=C\C(O)C(O)C(O)CO)NC2=O)cc1 (centres undefined) | > 200 | 110 µM | inactive
38 | CCC(=O)N/S(=N/S(=O)(=O)c1ccccc1)C(Cl)(Cl)Cl (centres undefined) | > 200 | > 200 µM | 
39 | O=S(=O)([O-])[O-].O=c1[nH]cnc2[nH]ncc12.O=c1[nH]cnc2[nH]ncc12.[Zn+2] | > 209 | 155 µM | 
40 | Cc1cccc2c1Oc1ccccc1C2NC(=O)CCN(C)C (centres undefined) | > 200 | 38 µM | 
41 | CCN(CC)CCC1CCCCN1CC(=O)N1c2ccccc2NC(=O)c2ccccc21 (centres undefined) | > 200 | > 200 µM | 
42 | C/C(CC(=O)N(C(C)C)C(C)C)=N\NC(=O)c1ccncc1 | > 61.7 | > 61.7 µM | 
43 | CNC(=O)N(C)C(=O)c1ccccc1C(=O)N(C)C(=O)NC | > 200 | > 200 µM | 
44 | Cc1c2[nH]c(c1CCC(=O)O)/C=c1\[n-]/c(c(C)c1CCC(=O)O)=C\c1[n-]c(c(C)c1C(C)O)/C=c1\[nH]/c(c(C)c1C(C)O)=C\2.[Cl][Pt+2][Cl] (centres undefined) | > 20.9 | 14.5 µM | 

Row | SMILES | EC50 [µM] | IC50 | outcome
45 | NCCCCCC(CCN)SCC1OC(n2cnc3c(N)ncnc32)C(O)C1O (centres undefined) | > 200 | 107 µM | 
46 | CCCCCC/C(CC(=O)CCC(=O)NCCc1ccccc1)=N\Nc1ccc([N+](=O)[O-])cc1[N+](=O)[O-] | > 97.7 | > 97.7 µM | 
47 | COc1cc(C(=O)CC2OC(=O)C(Cl)=C2Cl)ccc1Cl (centres undefined) | > 741 | 145 µM | 
48 | COc1ccc(C2NC(=O)N3C(c4ccc(OC)cc4)NC(=O)N23)cc1 (centres undefined) |  |  | inactive
49 | COCn1c(C(=O)c2ccc(OC)cc2)cc2ccccc21 | > 33.9 | > 33.9 µM | 
50 | CN1C(=O)N(C)C2(O)c3ccccc3C(=O)C12O (centres undefined) | > 1000 | > 1000 µM | 
51 | CN(C)N1C(=O)C(=O)N(c2cccc3ccccc23)C1=O | > 200 | > 200 µM | 
52 | Cc1ccnc2c1NC(=O)c1cccnc1N2C1CC1 | 0.0437 | 195 µM | 
53 | CCOC(=O)CCC(NC(=O)c1ccc(Nc2nc3ccccc3nc2-c2cccs2)cc1)C(=O)OCC (centres undefined) | > 200 | 13.5 µM | 
54 | CCN=C1C=C/C(=C(/c2ccc(NCC)c(C)c2)c2cc(O)c(S(=O)(=O)O)cc2S(=O)(=O)O)C=C1C |  |  | inactive
55 | N#Cc1ccccc1NC(=O)C(O)C(O)C(O)C(O)C=O (centres undefined) | > 200 | > 200 µM | 
56 | CC(=O)OCC1OC(n2c(C)cc(-c3ccco3)c(C#N)c2=S)C(OC(C)=O)C(OC(C)=O)C1OC(C)=O (centres undefined) | 126 | > 200 µM | 
57 | COc1ccc2c(c1)-c1c(c3cc(OC)ccc3n1CCN(C)C)CC2 |  |  | inactive
58 | CCc1c(Cc2ccccc2)n(COCCC[Se]c2ccccc2)c(=O)[nH]c1=O | 2.82 | 18.2 µM | 
59 | CCN(CC)S(=O)(=O)c1ccc([O-])c(C(=O)[O-])c1.[Cu+2].[OH3+] | > 200 | 28.2 µM | 
60 | COC(=O)c1ccc2cc(O)c(O)cc2c1 | > 200 | 22.4 µM | 
61 | O=C(/C=C/c1ccsc1)c1ccco1 | > 200 | 11 µM | 
62 | O=P(O)(O)c1ccc2c(c1)OCCOCCOCCOCCO2 | > 200 | > 200 µM | 
63 | COc1cc(-c2ccc(N=Nc3ccc4c(S(=O)(=O)O)cc(S(=O)(=O)O)c(N)c4c3O)c(OC)c2)ccc1N=Nc1ccc2c(S(=O)(=O)O)cc(S(=O)(=O)O)c(N)c2c1O | 5.01 | 49 µM | active
64 | COc1ccc(CNc2cnc3ccc(N)cc3n2)cc1OC | > 115 | > 115 µM | 
65 | O=C1/C(=C/c2cccs2)NC(=S)N1CN1CCOCC1 | > 200 | 34.7 µM | 
66 | Cc1noc(/N=C2\C=C(Nc3onc(C)c3C)C(=O)c3ccccc32)c1C | > 2.75 | > 2.75 µM | 

Row | SMILES | EC50 [µM] | IC50 | outcome
67 | CCCCCCCCCCCCCC(=O)OCC1OC(n2cc(F)c(=O)[nH]c2=O)C(NC(=O)OCc2ccccc2)C(OC(=O)CCCCCCCCCCCCC)C1O (centres undefined) | > 11.7 | > 11.7 µM | 
68 | CCOC(=O)C1(C(N)=O)C(=O)c2ccncc2C1=O (centres undefined) | > 200 | > 200 µM | 
69 | COc1ccc(-c2c3c(n(C4OC(CO)C(O)C(O)C4O)c(=S)c2C#N)CCCC3)cc1 (centres undefined) | > 200 | 55 µM | 
70 | O=C1OCC(C2CCCCC2)C(Br)=C1Br (centres undefined) | > 200 | 56.2 µM | 
71 | COc1ccccc1/C=C1\SC(=S)N(/C=C2\C(=O)Oc3ccccc3C2=O)C1=O | > 200 | 27.5 µM | 
72 | CCOC(=O)C1(Cc2ccc(C)cc2)Cc2ccc(C)cc2C1=O (centres undefined) | > 200 | 4.68 µM | 
73 | CC(=O)OC1O[C@@H](C(C)(C)O)CC[C@@H]1[C@H]1CC[C@@]2(C)C3=C(CC[C@]12C)[C@@]1(C)C[C@@H](OC(=O)CC(C)(O)CC(=O)O)[C@H](OC(C)=O)C(C)(C)C1CC3 (some centres undefined) | > 200 | 105 µM | 
74 | COc1cc(/C=C2\SC(=S)N(/C=C3\C(=O)C=C(C)OC3=O)C2=O)cc(OC)c1OC | > 200 | 18.2 µM | 
75 | O=C(/C=C\c1cccc2ccccc12)c1ccc(Cl)cc1Cl | > 1.66 | > 1.66 µM | 
76 | CN(N)/N=N/c1nc[nH]c1[N+](=O)[O-] | > 200 | 5.62 µM | 
77 | O=C(O)c1c2c(c(C(=O)O)c3ccccc13)-c1ccccc1-2 |  |  | inactive
78 | CSc1n[nH]c(=O)c2nc[nH]c12 | > 245 | > 245 µM | 
79 | O=c1c2ccccc2[se]n1-c1cccnc1 | 7.94 | 36.3 µM | 
80 | CCN(CC)CC1CN=C(N)O1 (centres undefined) | > 200 | > 200 µM | 
81 | COc1ccc(C2S/C(=C\c3ccc(O)cc3)C(=O)N2NC(=O)Cc2ccccc2)cc1 (centres undefined) | > 112 | > 112 µM | 
82 | CCN(CC)C(=O)C1C[C@@H](O)CN1C(=O)c1ccc(OC)c(OC)c1 (some centres undefined) | > 200 | > 200 µM | 
83 | CC1=CC(=O)NCCN1C | 138 | 1780 µM | 
84 | OCc1ccc2ccc3ccc(CO)nc3c2n1 | > 389 | 263 µM | 
85 | CN(C)C(=O)N1CC[N+](C)([O-])CC1 | > 200 | > 200 µM | 
86 | O=[N+]([O-])c1ccc(Nc2ccc(Cl)cc2)c2nonc12 | > 43.7 | 15.1 µM | 
